Tests used:
Experiment in all cases: relative viability (nuclei count vs DMSO), 5 days (fraction); higher = more cells survive
[1] = compound: CN(C)C[C@@H]1CCn2cc(c3ccccc32)C2=C(C(=O)NC2=O)c2cn(c3ccccc23)CCO1 [Ruboxistaurin] + O=C(c1cc(Cc2n[nH]c(=O)c3ccccc23)ccc1F)N1CCN(C(=O)C2CC2)CC1 [Olaparib] (partner 8 µM)
How it was run: (§1)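 Nuclei were stained with Hoechst during a one-step fixation (final 0.05% Triton X-100, 1% formaldehyde, 1 ug/ml Hoechst) carried out 5 days after dosing, then counted on 4× images. The cells, lung cancer lines in 1536-well plates, had been dosed by pin tool the day after seeding with one drug alone or a fixed anchor-drug dose plus five library-drug doses (not always all listed) in √10 steps. Relative viability is the nuclei count in treated wells divided by that in vehicle wells, and each value is the median of duplicate plates.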

[2] = compound: CN(C)C[C@@H]1CCn2cc(c3ccccc32)C2=C(C(=O)NC2=O)c2cn(c3ccccc23)CCO1 [Ruboxistaurin] + O=C(CCCCCCC(=O)Nc1ccccc1)NO [Vorinostat] (partner 1 µM)
How it was run: as §1

[3] = compound: CN(C)C[C@@H]1CCn2cc(c3ccccc32)C2=C(C(=O)NC2=O)c2cn(c3ccccc23)CCO1 [Ruboxistaurin] + Nc1ncn([C@H]2C[C@H](O)[C@@H](CO)O2)c(=O)n1 [Decitabine] (partner 2 µM)
How it was run: as §1

[4] = compound: CN(C)C[C@@H]1CCn2cc(c3ccccc32)C2=C(C(=O)NC2=O)c2cn(c3ccccc23)CCO1 [Ruboxistaurin] + Cc1nc(NC(=O)N2CCC[C@H]2C(N)=O)sc1-c1ccnc(C(C)(C)C(F)(F)F)c1 [Alpelisib] (partner 2 µM)
How it was run: as §1

[5] = compound: CN(C)C[C@@H]1CCn2cc(c3ccccc32)C2=C(C(=O)NC2=O)c2cn(c3ccccc23)CCO1 [Ruboxistaurin] + Nc1nc2[nH]cc(CCc3ccc(C(=O)N[C@@H](CCC(=O)O)C(=O)O)cc3)c2c(=O)[nH]1 [Pemetrexed] (partner 0.2 µM)
How it was run: as §1

Cell Line	relative viability ([1]; first compound 0.08 µM)	relative viability ([1]; first compound 0.8 µM)	relative viability ([1]; first compound 2.53 µM)	relative viability ([1]; first compound 8 µM)	relative viability ([2]; first compound 0.08 µM)	relative viability ([2]; first compound 0.8 µM)	relative viability ([2]; first compound 2.53 µM)	relative viability ([2]; first compound 8 µM)	relative viability ([3]; first compound 0.08 µM)	relative viability ([3]; first compound 0.8 µM)	relative viability ([3]; first compound 2.53 µM)	relative viability ([3]; first compound 8 µM)	relative viability ([4]; first compound 0.08 µM)	relative viability ([4]; first compound 0.8 µM)	relative viability ([4]; first compound 2.53 µM)	relative viability ([4]; first compound 8 µM)	relative viability ([5]; first compound 0.08 µM)	relative viability ([5]; first compound 0.8 µM)	relative viability ([5]; first compound 2.53 µM)	relative viability ([5]; first compound 8 µM)
NCI-H647	0.575	0.563	0.912	0.562	0.673	0.447	0.725	0.719	0.442	0.33	0.373	0.547	1.2	0.995	1.06	0.899	0.173	0.222	0.196	0.161
NCI-H2009	0.764	0.593	0.748	0.699	0.794	0.7	0.756	0.821	0.39	0.371	0.411	0.406	1.21	1.14	1.18	1.14	1.05	1.08	1.02	1.07
EPLC-272H	0.846	0.71	0.918	0.437	0.498	0.48	0.357	0.429	0.473	0.289	0.354	0.341	1.1	0.807	0.901	0.846	0.32	0.359	0.352	0.325
NCI-H520	0.321	0.341	0.328	0.291	0.883	0.723	0.735	0.672	0.535	0.477	0.544	0.612	0.976	0.789	1.01	0.822	0.666	0.506	0.532	0.494
NCI-H2405	0.918	0.774	0.878	0.874	1.08	0.988	0.97	0.982	0.798	0.676	0.763	0.756	0.936	0.681	0.775	0.835	1.13	1.04	1.11	1.01
NCI-H2085	0.808	0.703	0.769	0.909	0.914	0.82	0.842	0.815	0.485	0.534	0.67	0.667	0.996	0.899	0.977	0.997	1.07	0.868	0.944	0.904
NCI-H322M	0.764	0.675	0.805	0.329	0.878	0.753	0.737	0.556	0.746	0.656	0.6	0.619	0.811	0.74	0.818	0.67	0.646	0.528	0.596	0.47
NCI-H1944	0.422	0.353	0.38	0.393	0.552	0.552	0.558	0.427	0.439	0.403	0.405	0.46	0.866	0.722	0.716	0.738	0.6	0.55	0.667	0.659
LC-2-ad	0.711	0.626	0.697	0.752	0.747	0.668	0.694	0.694	0.71	0.887	0.753	0.847	0.779	0.785	0.846	0.783	0.259	0.284	0.285	0.282
NCI-H358	0.748	0.587	0.604	0.458	0.865	0.659	0.768	0.666	0.227	0.205	0.246	0.256	0.927	0.666	0.75	0.424	0.171	0.175	0.177	0.162
NCI-H2170	0.659	0.499	0.588	0.534	0.856	0.775	0.854	0.855	0.464	0.472	0.509	0.458	0.82	0.716	0.823	0.694	0.274	0.263	0.248	0.303
A-427	0.728	0.672	0.558	0.534	0.826	0.824	0.872	0.838	0.605	0.527	0.564	0.548	1.07	0.996	1.02	0.874	0.994	0.926	0.958	0.923
NCI-H1666	0.832	0.751	0.786	0.764	0.998	1.1	1.08	1.1	0.728	0.693	0.693	0.788	1.12	0.809	0.789	0.585	0.85	0.825	0.747	0.808
LOU-NH91	0.926	0.87	0.941	0.949	0.954	0.868	0.958	0.878	0.909	0.772	0.855	0.775	0.846	0.666	0.705	0.676	0.398	0.405	0.407	0.434
ABC-1	1.27	0.81	1.03	1.15	1.22	1.11	1.27	1.07	1.19	0.696	1.26	0.942	1.35	1.13	1.07	0.839	–	–	–	–
NCI-H1651	0.178	0.193	0.191	0.182	0.54	0.573	0.611	0.499	0.698	0.542	0.681	0.632	1.04	0.755	0.974	0.797	0.612	0.586	0.585	0.528
201T	0.821	0.837	0.852	0.909	1	0.961	1.05	1.03	0.858	0.834	0.824	0.914	1.03	1.01	1.01	1.01	0.31	0.327	0.311	0.31

Cell Line	relative viability ([1]; first compound 0.08 µM)	relative viability ([1]; first compound 0.8 µM)	relative viability ([1]; first compound 2.53 µM)	relative viability ([1]; first compound 8 µM)	relative viability ([2]; first compound 0.08 µM)	relative viability ([2]; first compound 0.8 µM)	relative viability ([2]; first compound 2.53 µM)	relative viability ([2]; first compound 8 µM)	relative viability ([3]; first compound 0.08 µM)	relative viability ([3]; first compound 0.8 µM)	relative viability ([3]; first compound 2.53 µM)	relative viability ([3]; first compound 8 µM)	relative viability ([4]; first compound 0.08 µM)	relative viability ([4]; first compound 0.8 µM)	relative viability ([4]; first compound 2.53 µM)	relative viability ([4]; first compound 8 µM)	relative viability ([5]; first compound 0.08 µM)	relative viability ([5]; first compound 0.8 µM)	relative viability ([5]; first compound 2.53 µM)	relative viability ([5]; first compound 8 µM)
NCI-H3122	0.743	0.581	0.559	0.572	1.14	0.948	1.03	1.3	0.535	0.376	0.466	0.426	0.837	0.562	0.737	0.587	0.191	0.201	0.191	0.187
A549	0.27	0.273	0.415	0.381	–	–	–	–	0.264	0.217	0.307	0.305	0.75	0.562	0.944	0.501	–	–	–	–
NCI-H727	0.625	0.7	0.722	0.521	1.1	1.14	1.13	1.28	0.862	0.839	0.976	0.639	0.543	0.485	0.527	0.368	–	–	–	–
NCI-H441	0.498	0.532	0.643	0.643	0.953	0.989	0.787	0.724	0.278	0.309	0.277	0.269	0.653	0.717	0.845	0.498	0.254	0.307	0.287	0.278
HOP-62	0.499	0.443	0.541	0.611	0.669	0.648	0.686	0.679	0.21	0.242	0.251	0.268	0.932	1.08	0.992	1	0.299	0.241	0.298	0.31
RERF-LC-KJ	0.938	0.804	0.942	0.709	0.663	0.623	0.675	0.644	0.784	0.587	0.743	0.682	0.854	0.798	0.761	0.744	0.48	0.46	0.483	0.446
HCC-44	0.978	0.942	0.983	1.04	1.04	1.04	1.1	1.23	0.974	0.882	1.01	1.02	0.765	0.715	0.831	0.755	0.666	0.556	0.642	0.638
LCLC-103H	0.735	0.69	0.729	0.676	0.823	0.743	0.807	0.75	0.805	0.648	0.726	0.699	0.99	0.802	0.826	0.862	0.47	0.479	0.434	0.608
NCI-H1915	0.241	0.26	0.268	0.25	0.473	0.526	0.513	0.464	0.252	0.262	0.277	0.268	1.07	1.02	1.03	1.09	0.508	0.439	0.443	0.426
ChaGo-K-1	0.431	0.39	0.433	0.444	0.795	0.712	0.875	0.853	0.592	0.487	0.53	0.535	–	–	–	–	0.272	0.247	0.26	0.267
NCI-H1703	0.447	0.411	0.622	0.305	–	–	–	–	–	–	–	–	0.356	0.323	0.366	0.308	–	–	–	–
NCI-H2228	0.643	0.564	0.889	0.696	0.924	0.424	0.588	0.559	–	–	–	–	0.85	0.675	0.837	0.478	0.387	0.335	0.337	0.322
NCI-H1650	0.854	0.709	0.907	0.981	0.676	0.554	0.685	0.569	0.387	0.524	0.501	0.468	–	–	–	–	0.425	0.362	0.373	0.454
NCI-H1792	0.517	0.453	0.287	0.414	–	–	–	–	0.63	0.479	0.491	0.554	0.77	0.62	0.695	0.694	0.845	0.659	0.749	0.584
NCI-H1563	–	–	–	–	–	–	–	–	–	–	–	–	0.972	0.867	1.05	0.849	0.831	0.724	0.987	0.656
IA-LM	0.871	0.836	0.842	0.912	1.13	0.937	0.656	0.939	–	–	–	–	0.971	0.663	0.747	0.612	–	–	–	–
CAL-12T	0.749	0.704	0.901	0.751	0.937	0.473	0.744	0.941	–	–	–	–	1.47	1.17	1.27	1.13	1.35	1.19	1.12	1.28

Source: the supplement of paper PMC10307832
